According to patent US20070015723A1, “Antiviral oligonucleotides having a conserved G4 core sequence” (priority 1992, published 2007):
Strand notation (5' to 3'): a small letter for the sugar, then the base; units joined by * are phosphorothioate-linked, units joined directly phosphodiester-linked; [ ] holds rarer units or linkages, { } end groups; capitals alone tell only the bases. d = 2'-deoxy (DNA)

The substances below were run against T1, human type II phospholipase A2 (Homo sapiens, UniProt P14555) (assay: Human type II phospholipase A2 enzyme assay (3H-oleic acid labelled E. coli substrate)). Conditions: 1 μM.
T1 sequence (P14555 21-144): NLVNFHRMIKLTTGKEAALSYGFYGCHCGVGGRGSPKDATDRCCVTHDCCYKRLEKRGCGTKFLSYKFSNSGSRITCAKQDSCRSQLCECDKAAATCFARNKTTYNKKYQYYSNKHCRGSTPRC
Format: biochemical

In the case of “ISIS 3470: GTAGGGAGGGAGGGTATGAGA, phosphorothioate, SEQ ID NO 66 (dG*dT*dA*dG*dG*dG*dA*dG*dG*dG*dA*dG*dG*dG*dT*dA*dT*dG*dA*dG*dA)”, the “inhibition of human type II phospholipase A2” value is reported as “completely inhibited”.

Same assay, conditions: 1 μM; Table 4

Compared with “ISIS 3181: TCTGCCCCGGCCGTCGCTCCC, phosphorothioate, SEQ ID NO 58 (dT*dC*dT*dG*dC*dC*dC*dC*dG*dG*dC*dC*dG*dT*dC*dG*dC*dT*dC*dC*dC)”, “ISIS 3182: CAGAGGACTCCAGAGTTGTAT, phosphorothioate, SEQ ID NO 59 (dC*dA*dG*dA*dG*dG*dA*dC*dT*dC*dC*dA*dG*dA*dG*dT*dT*dG*dT*dA*dT)” is lower in “% Inhibition (1 μM)” value: 42.7% for the first, 30.2% for the second.

Compared with “ISIS 3184: TTCATGGTAAGAGTTCTTGGG, phosphorothioate, SEQ ID NO 60 (dT*dT*dC*dA*dT*dG*dG*dT*dA*dA*dG*dA*dG*dT*dT*dC*dT*dT*dG*dG*dG)”, “ISIS 3185: CAAAGATCATGATCACTGCCA, phosphorothioate, SEQ ID NO 61 (dC*dA*dA*dA*dG*dA*dT*dC*dA*dT*dG*dA*dT*dC*dA*dC*dT*dG*dC*dC*dA)” is lower in “% Inhibition (1 μM)” value: 25.1% for the first, 22.7% for the second.

First: ISIS 3192: GGAAGGTTTCGAGQGAAGAGG, phosphorothioate, SEQ ID NO 63
Second: ISIS 3193: CCTGCAGTAGGCCTGGAAGGA, phosphorothioate, SEQ ID NO 64 (dC*dC*dT*dG*dC*dA*dG*dT*dA*dG*dG*dC*dC*dT*dG*dG*dA*dA*dG*dG*dA)
The “% Inhibition (1 μM)” value of the first is higher: 28.1% for the first, 22.6% for the second.

Going from “ISIS 3468: GGGACTCAGCAACGAGGGGTG, phosphorothioate, SEQ ID NO 65 (dG*dG*dG*dA*dC*dT*dC*dA*dG*dC*dA*dA*dC*dG*dA*dG*dG*dG*dG*dT*dG)” to “ISIS 3470: GTAGGGAGGGAGGGTATGAGA, phosphorothioate, SEQ ID NO 66 (dG*dT*dA*dG*dG*dG*dA*dG*dG*dG*dA*dG*dG*dG*dT*dA*dT*dG*dA*dG*dA)”, the “% Inhibition (1 μM)” value falls from 97.5% to 88.9%.

Compared with “ISIS 3471: AAGGAACTTGGTTAGGGTAGG, phosphorothioate, SEQ ID NO 67 (dA*dA*dG*dG*dA*dA*dC*dT*dT*dG*dG*dT*dT*dA*dG*dG*dG*dT*dA*dG*dG)”, “ISIS 3472: TGGGTGAGGGATGCTTTCTGC, phosphorothioate, SEQ ID NO 68 (dT*dG*dG*dG*dT*dG*dA*dG*dG*dG*dA*dT*dG*dC*dT*dT*dT*dC*dT*dG*dC)” is higher in “% Inhibition (1 μM)” value: 34.5% for the first, 69.0% for the second.

Going from “ISIS 3473: CTGCCTGGCCTCTAGGATGGG, phosphorothioate, SEQ ID NO 69 (dC*dT*dG*dC*dC*dT*dG*dG*dC*dC*dT*dC*dT*dA*dG*dG*dA*dT*dG*dG*dG)” to “ISIS 3474: ATAGAAGGGCTCCTGCCTGGC, phosphorothioate, SEQ ID NO 70 (dA*dT*dA*dG*dA*dA*dG*dG*dG*dC*dT*dC*dC*dT*dG*dC*dC*dT*dG*dG*dC)”, the “% Inhibition (1 μM)” value falls from 25.9% to 13.3%.

First: ISIS 3475: TCTCATTCTGGGTGGGTATAG, phosphorothioate, SEQ ID NO 71 (dT*dC*dT*dC*dA*dT*dT*dC*dT*dG*dG*dG*dT*dG*dG*dG*dT*dA*dT*dA*dG)
Second: ISIS 3476: GCTGGAAATCTGCTGGATGTC, phosphorothioate, SEQ ID NO 72 (dG*dC*dT*dG*dG*dA*dA*dA*dT*dC*dT*dG*dC*dT*dG*dG*dA*dT*dG*dT*dC)
The “% Inhibition (1 μM)” value of the first is higher: 67.0% for the first, 43.4% for the second.

Same assay, conditions: 1 μM; Table 5, two separate experiments

First: GGG TGG GTA TAG AAG GGC: truncated version of ISIS 3196, SEQ ID NO 97 (dG*dG*dG*dT*dG*dG*dG*dT*dA*dT*dA*dG*dA*dA*dG*dG*dG*dC)
Second: GGG TGG GTA TAG AAG: truncated version of ISIS 3196, SEQ ID NO 98 (dG*dG*dG*dT*dG*dG*dG*dT*dA*dT*dA*dG*dA*dA*dG)
The “% Inhibition (1 μM)” value of the first is higher: 85.3% for the first, 82.5% for the second.

“GTA TAG AAG GGC TCC: truncated version of ISIS 3196, SEQ ID NO 100 (dG*dT*dA*dT*dA*dG*dA*dA*dG*dG*dG*dC*dT*dC*dC)” was tested, and the “% Inhibition (1 μM)” value was 9.2%.

Same assay, conditions: concentrations as high as 10 μM

With “ISIS 1573: phosphorothioate deoxyoligonucleotide, SEQ ID NO: 120 (dG*dA*dG*dG*dC*dT*dG*dA*dG*dG*dT*dG*dG*dG*dA*dG*dG*dA)” the “inhibition of phospholipase A2” value was “did not significantly inhibit”.
